≈ marks a conversion by molar mass, not a printed value. Ends that are not written are not given here.
Experiments:
[1] = tested on: S. aureus ΔmprF mutant with or without functional MprF; assay: MIC, MIC test strips: mprF deletion mutant versus functional MprF; assay type: cell-based, Staphylococcus aureus; details: daptomycin with 50 mg/liter CaCl2, three independent experiments (Fig. 4A)
Excerpt: (§1) The common laboratory strain, methicillin-susceptible S. aureus SA113 (ATCC 35556) and its mprF knockout derivative SA113ΔmprF have been described recently ([17]). Point mutations in mprF were introduced by site-directed mutagenesis in Escherichia coli using E. coli/S. aureus shuttle vector pRB474 bearing mprF via the use of a QuikChange kit (Stratagene, La Jolla, CA, USA) (see Table S3 in the supplemental material), as described recently ([20]). Mutated derivatives of mprF were cloned in pRB474mprF and transferred into strain SA113ΔmprF. Expression of the pRB474mprF variants was mediated by the use of constitutive Bacillus subtilis promoter vegII. Plasmids were maintained with 10 μg/ml chloramphenicol in all studies, with the exception of the MIC assays.
(§2) The MICs of daptomycin, bacitracin, polymyxin B, vancomycin, and oxacillin were determined with MIC test strips from Liofilchem according to the manufacturer’s advice. The MICs of friulimicin B, nisin, and gallidermin were determined by broth microdilution in Mueller-Hinton broth (MHB) in a 24-well plate under shaking conditions. Friulimicin B and daptomycin MICs were determined in the presence of 50 mg/liter CaCl2. Other MICs were determined in the presence of 50 mg/liter CaCl2 when indicated.

[2] = tested on: S. aureus 113 (SA113) mprF mutant expressing MprF with S295L, P314L, S337L, I420N or L826F; assay: MIC, MIC test strips (Liofilchem); assay type: cell-based, Staphylococcus aureus; details: mutations S295L, I420N and L826F, 50 mg/liter CaCl2 (Fig. 1B)
Excerpt: as §1, §2

[3] = tested on: S. aureus with chromosomal deletion of MprF; details: cited from earlier work
Excerpt: Daptomycin is the first approved drug of a new class of calcium-dependent lipopeptide antibiotics, whose entire mode of action is still not fully understood ([6], [8]). It interacts with phosphatidylglycerol (PG) and interferes with bacterial fluid membrane microdomains, which leads to inhibition of cell wall synthesis ([9]). However, it is unclear if its activity requires a specific docking molecule in the membrane ([9], [10]). How point mutations in different S. aureus proteins contribute to or cause DAP-R remains equally elusive ([6]). Several proteins involved in the synthesis, regulation, ...

[4] = tested on: S. aureus 113 (SA113) mprF mutant expressing T345A-MprF (pRB-T345A); assay type: cell-based, Staphylococcus aureus; details: T345A mutation in MprF on plasmid in SA113 mprF mutant; MIC test strips; 50 mg/liter CaCl2; mean of at least five independent experiments (Fig. 1B)
Excerpt: as §1, §2

[5] = tested on: S. aureus 113 (SA113) mprF mutant expressing parental (wild-type) MprF (pRBmprF); assay type: cell-based, Staphylococcus aureus; details: parental MprF sequence on plasmid in SA113 mprF mutant; MIC test strips; 50 mg/liter CaCl2; mean of at least five independent experiments (Fig. 1B)
Excerpt: as §1, §2

[6] = tested on: S. aureus 113 (SA113) mprF mutant expressing V351E-MprF (pRB-V351E); assay type: cell-based, Staphylococcus aureus; details: V351E mutation in MprF on plasmid in SA113 mprF mutant; MIC test strips; 50 mg/liter CaCl2; mean of at least five independent experiments (Fig. 1B)
Excerpt: as §1, §2

[7] = tested on: S. aureus ΔmprF mutant expressing D71A-T345A MprF (pRB-D71A-T345A); assay: MIC, MIC test strips, flippase-inactivated MprF; assay type: cell-based, Staphylococcus aureus
Excerpt: as §1, §2

[8] = tested on: S. aureus ΔmprF mutant expressing R112A-T345A MprF (pRB-R112A-T345A); assay: MIC, MIC test strips, flippase-inactivated MprF; assay type: cell-based, Staphylococcus aureus
Excerpt: as §1, §2

[9] = tested on: S. aureus ΔmprF mutant expressing E206A-T345A MprF (pRB-E206A-T345A); assay: MIC, MIC test strips, flippase-inactivated MprF; assay type: cell-based, Staphylococcus aureus
Excerpt: as §1, §2

[10] = tested on: S. aureus ΔmprF mutant with or without functional MprF; assay: MIC, broth microdilution: mprF deletion mutant versus functional MprF; assay type: cell-based, Staphylococcus aureus; details: broth microdilution in Mueller-Hinton broth, 24-well plate, shaking; friulimicin B with 50 mg/liter CaCl2; three independent experiments (Fig. 4A)
Excerpt: as §1, §2

[11] = tested on: S. aureus ΔmprF mutant expressing T345A-MprF; assay: MIC, broth microdilution; assay type: cell-based, Staphylococcus aureus; details: T345A mutation; broth microdilution in MHB; 50 mg/liter CaCl2; three independent experiments (Fig. 4A)
Excerpt: as §1, §2

[12] = tested on: S. aureus ΔmprF mutant expressing V351E-MprF; assay: MIC, broth microdilution; assay type: cell-based, Staphylococcus aureus; details: V351E mutation; broth microdilution in MHB; 50 mg/liter CaCl2; three independent experiments (Fig. 4A)
Excerpt: as §1, §2

For `Cc1onc(-c2ccccc2)c1C(=O)N[C@@H]1C(=O)N2[C@@H]1SC(C)(C)[C@@H]2C(=O)O` [oxacillin], the “ability to inhibit S. aureus growth (MIC) with functional MprF versus mprF deletion mutant” value [1] was “not affected by MprF”.

For `CCCCCCCCCC(=O)N[C@@H](Cc1c[nH]c2ccccc12)C(=O)N[C@H](CC(N)=O)C(=O)N[C@@H](CC(=O)O)C(=O)N[C@@H]1C(=O)NCC(=O)N[C@@H](CCCN)C(=O)N[C@@H](CC(=O)O)C(=O)N[C@H](C)C(=O)N[C@@H](CC(=O)O)C(=O)NCC(=O)N[C@H](CO)C(=O)N[C@@H]([C@H](C)CC(=O)O)C(=O)N[C@@H](CC(=O)c2ccccc2N)C(=O)O[C@@H]1C` [daptomycin], the “daptomycin susceptibility compared to the parental MprF sequence” value [2] is given as “did not alter daptomycin susceptibility”, the “susceptibility after chromosomal deletion of MprF” value [3] is given as “hypersusceptibility” and the MIC [4] is given as 3 µg/mL (≈ 1.85 µM). The MIC [5] was 1 µg/mL (≈ 0.617 µM), the MIC [6] was 3 µg/mL (≈ 1.85 µM) and the “ability to inhibit S. aureus growth (MIC) with functional MprF versus mprF deletion mutant” value [1] was “reduced in the presence of a functional MprF protein”. For the same compound, the “ability of T345A to increase the MIC of daptomycin” value ([7]; T345A in combination with D71A, 50 mg/liter CaCl2, three independent experiments (Fig. 5B)) was “not able to increase the daptomycin MIC”, the “ability of T345A to increase the MIC of daptomycin” value ([8]; T345A in combination with R112A, 50 mg/liter CaCl2, three independent experiments (Fig. 5B)) was “only slightly increased MIC” and the “ability of T345A to increase the MIC of daptomycin” value ([9]; T345A in combination with R206A (so in the source), 50 mg/liter CaCl2, three independent experiments (Fig. 5B)) was “not able to increase the daptomycin MIC”.

With “nisin (ITSISLCTPGCKTGALMGCNMKTATCHCSIHVSK; also: lantibiotic: thioether rings and dehydro residues, places not given here; UniProt P13068 24-57, looked up)” the “ability to inhibit S. aureus growth (MIC) with functional MprF versus mprF deletion mutant” value [10] was “reduced in the presence of a functional MprF protein”.

For “gallidermin (IASKFLCTPGCAKTGSFNSYCC; also: lantibiotic: thioether rings and dehydro residues, places not given here; UniProt P21838 31-52, looked up)”, the “ability to inhibit S. aureus growth (MIC) with functional MprF versus mprF deletion mutant” value [10] was “reduced in the presence of a functional MprF protein”.

With bacitracin the “ability to inhibit S. aureus growth (MIC) with functional MprF versus mprF deletion mutant” value [1] was “reduced in the presence of a functional MprF protein”, the “MIC of bacitracin as indicator of flippase activity, compared to strains expressing a functional MprF” value ([7]; T345A with flippase-inactivating mutation D71A, three independent experiments (Fig. 5A)) was “hypersusceptible” and the “MIC of bacitracin as indicator of flippase activity, compared to strains expressing a functional MprF” value ([8]; T345A with flippase-inactivating mutation R112A, three independent experiments (Fig. 5A)) was “hypersusceptible”. The “MIC of bacitracin as indicator of flippase activity, compared to strains expressing a functional MprF” value ([9]; T345A with flippase-inactivating mutation E206A, three independent experiments (Fig. 5A)) was “hypersusceptible”.

With polymyxin B the “ability to inhibit S. aureus growth (MIC) with functional MprF versus mprF deletion mutant” value [1] was “reduced in the presence of a functional MprF protein”.

In the case of friulimicin B, the “ability to inhibit S. aureus growth (MIC) with functional MprF versus mprF deletion mutant” value [10] is reported as “reduced in the presence of a functional MprF protein”, the “cross-resistance (MIC versus wild-type MprF)” value [11] is reported as “cross-resistance” and the “cross-resistance (MIC versus wild-type MprF)” value [12] is reported as “cross-resistance”.

For vancomycin, the “ability to inhibit S. aureus growth (MIC) with functional MprF versus mprF deletion mutant” value [1] was “reduced in the presence of a functional MprF protein”.

From article PMC6299216, “Gain-of-Function Mutations in the Phospholipid Flippase MprF Confer Specific Daptomycin Resistance” (mBio, 2018)
